Assay results from US20050009005A1, “Methods of using quantitative lipid metabolome data” (Lipomics Technologies, Inc., priority 2001, published 2005).

System: de novo fatty acid synthesis
Experiment: Lipid metabolite profile of plasma, heart, liver and inguinal adipose of CL316,243-treated mice (trial 2; Tables 7 and 8)
Format: in vivo
Settings: mean
Text: It is understood that the described methods can be used to analyze lipid metabolites from other subjects, including particularly animals other than mice.
Mouse tissue and plasma samples were a generous donation to Lipomics Technologies, Inc., from Dr. Edward Leiter of the Jackson Laboratory (Bar Harbor, Me.). Samples included the plasma, heart, liver and inguinal adipose of mice treated with pharmaceuticals or their corresponding controls.
In trial 2, male, inbred NON mice were fed a control with or without the presence of the β-3 adrenergic agonist CL316,243 for four weeks (at 0.001% CL316,243 by weight in the dietary chow).
In both studies, five treated and five control mice were used. Following the treatments and the killing of the mice, tissues and plasma were taken, chilled to −80 ° C. and shipped to the analysis laboratory at Lipomics Technologies in a frozen state.
Tissue processing and lipid extraction, including provision of internal standards, was carried out essentially as described in Watkins et al. (J. Lipid Res. Papers in Press, 10.1184/jlf.M200169-JLF200, published August 16, 2002), and in co-owned international application PCT/US02/21426, entitled “GENERATING, VIEWING, INTERPRETING, AND UTILIZING A QUANTITATIVE DATABASE OF METABOLITES,” both of which are incorporated in their entirety herein by reference.
The separation of lipid classes was performed in some instance by preparative thin-layer chromatography (TLC). To remove any residual metal or other damaging contaminants on the TLC plates, each plate was washed prior to use. Washing the plates is a three-step process that involves impregnating each plate with ethylenediamine tetraacetic acid (EDTA) and rinsing the plates once with methanol and once with chloroform. Each plate is first impregnated with 1 mM EDTA, pH 5.5, by ascending development using the method of Ruiz (J. Lipid Res. 38, 1482-1489, 1997). After each plate was completely developed, it was dried in air overnight. Once dry, each plate was developed in methanol, dried, and developed in chloroform in the same direction as the development with EDTA. The washed plates were then dried in air. Just prior to use, each plate was activated by heating to 110° C. for 10 minutes.
To prepare the TLC chamber for chromatography, Whatman (Clifton, N.J.) filter paper was cut into 20×80-cm strips and wrapped around the inside wall of a 30×60×10-cm glass development chamber. One hundred milliliters of the appropriate mobile phase was added to the chamber, and the chambers were sealed and allowed to equilibrate. Chambers were considered equilibrated when the solvent front had completely ascended the filter paper. The mobile phase employed for the separation of phospholipid classes (lyso-phospholipids, sphingomyelin, phosphatidylcholine, phosphatidylserine, phosphatidylethanolamine and cardiolipin) was a modification of the solvent system described by Holub and Skeaf (“Nutritional regulation of cellular phosphatidylinositol,” in Methods in Enzymology, ed. Conn, P. M. (Academic Press, Inc., Orlando), pp. 234-243, 1987) consisting of chloroform/methanol/acetic acid/water (100:67:7:4, by volume).
For the separation of neutral lipid classes (free fatty acids, free sterols, triacylglycerides and cholesterol esters), a solvent system consisting of petroleum ether/diethyl ether/acetic acid (80:20:1, by volume) was used (Mangold, Thin Layer Chromatography—A Laboratory Handbook (Springer-Verlag, New York), 1969).
After the TLC plate was activated, the sample extracts were spotted onto the activated plate. As a general rule, samples were spotted at an estimated concentration such that no single lipid class was present at more than 25 jig per centimeter of plate width following chromatography. This ensured that the plate was not overloaded and minimized the risk of cross-contamination between lipid classes (cross-contamination is readily identified during sample analysis as each lipid class contains unique internal standards). […]

For `C[C@H](Cc1ccc2c(c1)OC(C(=O)[O-])(C(=O)[O-])O2)NC[C@H](O)c1cccc(Cl)c1.[Na+].[Na+]` [CL316,243], the “16:0” value (Heart, PS/I) was 302.1 nanomoles per gram, the “16:1n7” value (Heart, PS/I) was 48.6 nanomoles per gram and the “18:0” value (Heart, PS/I) was 2823.7 nanomoles per gram. For the same compound, the “18:1n7” value (Heart, PS/I) was 73.5 nanomoles per gram, the “18:1n9” value (Heart, PS/I) was 572.9 nanomoles per gram and the “14:0” value (Heart, TAG) was 78.8 nanomoles per gram. For the same compound, the “16:0” value (Heart, TAG) was 651.6 nanomoles per gram, the “16:1n7” value (Heart, TAG) was 57.3 nanomoles per gram and the “18:0” value (Heart, TAG) was 195.5 nanomoles per gram. The “18:1n7” value (Heart, TAG) was 28.0 nanomoles per gram, the “18:1n9” value (Heart, TAG) was 402.8 nanomoles per gram and the “14:0” value (Heart, lipid class CE) was 5.1 percentage of total fatty acids. For the same compound, the “16:0” value (Heart, lipid class CE) was 15.4 percentage of total fatty acids, the “16:1n7” value (Heart, lipid class CE) was 2.9 percentage of total fatty acids and the “18:0” value (Heart, lipid class CE) was 7.0 percentage of total fatty acids. For the same compound, the “18:1n7” value (Heart, lipid class CE) was 1.5 percentage of total fatty acids, the “18:1n9” value (Heart, lipid class CE) was 30.1 percentage of total fatty acids and the Saturates (Heart, lipid class CE) was 30.3 percentage of total fatty acids. The Total (Heart, lipid class CE) was 100.0 percentage of total fatty acids, the “Total n7” value (Heart, lipid class CE) was 4.4 percentage of total fatty acids and the “Total n9” value (Heart, lipid class CE) was 31.5 percentage of total fatty acids. For the same compound, the “14:0” value (Heart, lipid class CL) was 0.6 percentage of total fatty acids, the “16:0” value (Heart, lipid class CL) was 2.0 percentage of total fatty acids and the “16:1n7” value (Heart, lipid class CL) was 1.7 percentage of total fatty acids. For the same compound, the “18:0” value (Heart, lipid class CL) was 3.3 percentage of total fatty acids, the “18:1n7” value (Heart, lipid class CL) was 3.2 percentage of total fatty acids and the “18:1n9” value (Heart, lipid class CL) was 8.0 percentage of total fatty acids. For the same compound, the Saturates (Heart, lipid class CL) was 6.5 percentage of total fatty acids, the Total (Heart, lipid class CL) was 25.0 percentage of total fatty acids and the “Total n7” value (Heart, lipid class CL) was 4.9 percentage of total fatty acids. The “Total n9” value (Heart, lipid class CL) was 8.5 percentage of total fatty acids, the “14:0” value (Heart, lipid class FFA) was 2.9 percentage of total fatty acids and the “16:0” value (Heart, lipid class FFA) was 17.8 percentage of total fatty acids. The “16:1n7” value (Heart, lipid class FFA) was 2.3 percentage of total fatty acids, the “18:0” value (Heart, lipid class FFA) was 7.4 percentage of total fatty acids and the “18:1n7” value (Heart, lipid class FFA) was 2.2 percentage of total fatty acids. For the same compound, the “18:1n9” value (Heart, lipid class FFA) was 29.9 percentage of total fatty acids, the Saturates (Heart, lipid class FFA) was 29.2 percentage of total fatty acids and the Total (Heart, lipid class FFA) was 100.0 percentage of total fatty acids. For the same compound, the “Total n7” value (Heart, lipid class FFA) was 4.5 percentage of total fatty acids, the “Total n9” value (Heart, lipid class FFA) was 30.8 percentage of total fatty acids and the “14:0” value (Heart, lipid class PC) was 0.3 percentage of total fatty acids. For the same compound, the “16:0” value (Heart, lipid class PC) was 26.9 percentage of total fatty acids, the “16:1n7” value (Heart, lipid class PC) was 0.4 percentage of total fatty acids and the “18:0” value (Heart, lipid class PC) was 17.4 percentage of total fatty acids. The “18:1n7” value (Heart, lipid class PC) was 1.9 percentage of total fatty acids, the “18:1n9” value (Heart, lipid class PC) was 6.6 percentage of total fatty acids and the Saturates (Heart, lipid class PC) was 45.0 percentage of total fatty acids. For the same compound, the Total (Heart, lipid class PC) was 50.0 percentage of total fatty acids, the “Total n7” value (Heart, lipid class PC) was 2.2 percentage of total fatty acids and the “Total n9” value (Heart, lipid class PC) was 6.8 percentage of total fatty acids. The “14:0” value (Heart, lipid class PE) was 0.1 percentage of total fatty acids, the “16:0” value (Heart, lipid class PE) was 9.3 percentage of total fatty acids and the “16:1n7” value (Heart, lipid class PE) was 0.3 percentage of total fatty acids. For the same compound, the “18:0” value (Heart, lipid class PE) was 26.7 percentage of total fatty acids, the “18:1n7” value (Heart, lipid class PE) was 1.3 percentage of total fatty acids and the “18:1n9” value (Heart, lipid class PE) was 4.8 percentage of total fatty acids. The Saturates (Heart, lipid class PE) was 36.5 percentage of total fatty acids, the Total (Heart, lipid class PE) was 50.0 percentage of total fatty acids and the “Total n7” value (Heart, lipid class PE) was 1.6 percentage of total fatty acids. For the same compound, the “Total n9” value (Heart, lipid class PE) was 5.0 percentage of total fatty acids, the “14:0” value (Heart, lipid class PL) was 0.3 percentage of total fatty acids and the “16:0” value (Heart, lipid class PL) was 16.0 percentage of total fatty acids. The “16:1n7” value (Heart, lipid class PL) was 0.5 percentage of total fatty acids, the “18:0” value (Heart, lipid class PL) was 19.8 percentage of total fatty acids and the “18:1n7” value (Heart, lipid class PL) was 1.8 percentage of total fatty acids. For the same compound, the “18:1n9” value (Heart, lipid class PL) was 6.1 percentage of total fatty acids, the Saturates (Heart, lipid class PL) was 37.0 percentage of total fatty acids and the Total (Heart, lipid class PL) was 50.0 percentage of total fatty acids. For the same compound, the “Total n7” value (Heart, lipid class PL) was 2.3 percentage of total fatty acids, the “Total n9” value (Heart, lipid class PL) was 6.5 percentage of total fatty acids and the “14:0” value (Heart, lipid class PS/I) was 0.4 percentage of total fatty acids. For the same compound, the “16:0” value (Heart, lipid class PS/I) was 3.5 percentage of total fatty acids, the “16:1n7” value (Heart, lipid class PS/I) was 0.6 percentage of total fatty acids and the “18:0” value (Heart, lipid class PS/I) was 33.1 percentage of total fatty acids. For the same compound, the “18:1n7” value (Heart, lipid class PS/I) was 0.9 percentage of total fatty acids, the “18:1n9” value (Heart, lipid class PS/I) was 6.7 percentage of total fatty acids and the Saturates (Heart, lipid class PS/I) was 38.0 percentage of total fatty acids. The Total (Heart, lipid class PS/I) was 50.0 percentage of total fatty acids, the “Total n7” value (Heart, lipid class PS/I) was 1.4 percentage of total fatty acids and the “Total n9” value (Heart, lipid class PS/I) was 7.1 percentage of total fatty acids. The “14:0” value (Heart, lipid class TAG) was 4.1 percentage of total fatty acids, the “16:0” value (Heart, lipid class TAG) was 34.2 percentage of total fatty acids and the “16:1n7” value (Heart, lipid class TAG) was 2.9 percentage of total fatty acids. For the same compound, the “18:0” value (Heart, lipid class TAG) was 10.1 percentage of total fatty acids, the “18:1n7” value (Heart, lipid class TAG) was 1.5 percentage of total fatty acids and the “18:1n9” value (Heart, lipid class TAG) was 21.5 percentage of total fatty acids. For the same compound, the Saturates (Heart, lipid class TAG) was 51.9 percentage of total fatty acids, the Total (Heart, lipid class TAG) was 33.3 percentage of total fatty acids and the “Total n7” value (Heart, lipid class TAG) was 4.4 percentage of total fatty acids. The “Total n9” value (Heart, lipid class TAG) was 22.9 percentage of total fatty acids, the “14:0” value (Liver, CE) was 45.5 nanomoles per gram and the “16:0” value (Liver, CE) was 462.8 nanomoles per gram. For the same compound, the “16:1n7” value (Liver, CE) was 84.4 nanomoles per gram, the “18:0” value (Liver, CE) was 121.3 nanomoles per gram and the “18:1n7” value (Liver, CE) was 31.5 nanomoles per gram. The “18:1n9” value (Liver, CE) was 455.4 nanomoles per gram, the Saturates (Liver, CE) was 668.6 nanomoles per gram and the “Total n7” value (Liver, CE) was 115.9 nanomoles per gram. For the same compound, the “Total n9” value (Liver, CE) was 482.4 nanomoles per gram, the “Total nMole of FA” value (Liver, CE) was 1764.6 nanomoles per gram and the “14:0” value (Liver, CL) was 21.3 nanomoles per gram. The “16:0” value (Liver, CL) was 254.3 nanomoles per gram, the “16:1n7” value (Liver, CL) was 85.8 nanomoles per gram and the “18:0” value (Liver, CL) was 260.0 nanomoles per gram. For the same compound, the “18:1n7” value (Liver, CL) was 215.4 nanomoles per gram, the “18:1n9” value (Liver, CL) was 437.0 nanomoles per gram and the Saturates (Liver, CL) was 556.4 nanomoles per gram. The “Total n7” value (Liver, CL) was 301.2 nanomoles per gram, the “Total n9” value (Liver, CL) was 473.0 nanomoles per gram and the “Total nMole of FA” value (Liver, CL) was 1255.5 nanomoles per gram. For the same compound, the “14:0” value (Liver, FFA) was 152.9 nanomoles per gram, the “16:0” value (Liver, FFA) was 2280.7 nanomoles per gram and the “16:1n7” value (Liver, FFA) was 375.0 nanomoles per gram. For the same compound, the “18:0” value (Liver, FFA) was 460.2 nanomoles per gram, the “18:1n7” value (Liver, FFA) was 273.5 nanomoles per gram and the “18:1n9” value (Liver, FFA) was 2293.4 nanomoles per gram. For the same compound, the Saturates (Liver, FFA) was 2951.3 nanomoles per gram, the “Total n7” value (Liver, FFA) was 648.5 nanomoles per gram and the “Total n9” value (Liver, FFA) was 2337.2 nanomoles per gram.
